Molecular target: T1, human capsaicin receptor (Homo sapiens, UniProt Q8NER1)
T1 construct: pBK-CMV expression construct encoding the full length human capsaicin receptor; expressed in transfected cells
Assay: Calcium mobilization assay, determination of antagonist activity (Example 6)
Format: cell-based
Conditions: Table II; IC50 determined as described in Example 6
Summary of the method: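 HEK293 clonal lines stably expressing full-length human capsaicin receptor, loaded with Fluo-3 AM in KRH buffer pH 7.4, 1–2 h at 37 °C. Compounds (1–5 μM final) preincubated 0.5–6 h at room temperature, then capsaicin at its EC50 added. FLIPR/Fluoroskan calcium signal; IC50 as 50% decrease of capsaicin response.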

T1 sequence (Q8NER1 whole entry): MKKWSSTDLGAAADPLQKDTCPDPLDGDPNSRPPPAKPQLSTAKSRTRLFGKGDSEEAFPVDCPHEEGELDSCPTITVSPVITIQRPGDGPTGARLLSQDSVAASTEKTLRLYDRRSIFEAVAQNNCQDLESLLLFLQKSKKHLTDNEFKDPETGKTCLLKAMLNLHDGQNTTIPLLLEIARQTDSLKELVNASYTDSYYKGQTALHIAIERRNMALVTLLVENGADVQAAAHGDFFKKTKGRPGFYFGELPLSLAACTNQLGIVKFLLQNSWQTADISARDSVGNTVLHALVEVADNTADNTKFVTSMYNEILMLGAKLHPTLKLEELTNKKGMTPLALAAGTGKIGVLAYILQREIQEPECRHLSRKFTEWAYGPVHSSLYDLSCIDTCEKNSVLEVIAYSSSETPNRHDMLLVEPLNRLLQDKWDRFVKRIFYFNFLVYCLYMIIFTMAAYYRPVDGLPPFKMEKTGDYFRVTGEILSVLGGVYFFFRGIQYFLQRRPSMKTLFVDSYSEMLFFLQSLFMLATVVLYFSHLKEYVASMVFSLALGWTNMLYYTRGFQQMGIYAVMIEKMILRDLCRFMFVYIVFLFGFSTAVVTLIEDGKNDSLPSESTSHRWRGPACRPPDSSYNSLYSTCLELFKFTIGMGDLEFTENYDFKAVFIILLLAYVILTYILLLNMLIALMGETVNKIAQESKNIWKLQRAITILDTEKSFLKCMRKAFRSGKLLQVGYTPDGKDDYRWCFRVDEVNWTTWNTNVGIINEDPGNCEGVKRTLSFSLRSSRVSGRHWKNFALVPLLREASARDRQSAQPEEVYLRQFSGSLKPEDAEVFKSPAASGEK

SMILES | IC50 [nM]
Cc1cccnc1N1CCN(c2cc(-c3ccc(OC(F)(F)F)cc3)nc(N3CCOCC3)n2)[C@H](C)C1 [Example 527, 4{4[(2R)-2-methyl-4-(3-methylpyridin-2-yl)piperazin-1-yl]-6-[4-(trifluoromethoxy)phenyl]pyrimidin-2-yl}morpholine] | ≤ 1000
COc1ccc(-c2cc(N3CCN(c4ncccc4Cl)C[C@H]3C)nc(N3CCOCC3)n2)cc1F [Example 542, 4-[4-[(2R)-4-(3-chloropyridin-2-yl)-2-methylpiperazin-1-yl]-6-(3-fluoro-4-methoxyphenyl)pyrimidin-2-yl]morpholine] | ≤ 1000
COCCCOc1nc(-c2ccc(F)c(Cl)c2)cc(N2CCN(c3ncccc3C(F)(F)F)CC2)n1 [Example 555, 4-(3-chloro-4-fluorophenyl)-2-(3-methoxypropoxy)-6-{4-[3-(trifluoromethyl)pyridin-2-yl]piperazin-1-yl}pyrimidine] | ≤ 1000
CCN(CC)CCN(C)c1nc(-c2ccc(F)c(Cl)c2)cc(N2CCN(c3ncccc3C(F)(F)F)CC2)n1 [Example 566, N-1-(4-(3-chloro-4-fluorophenyl)-6-{4-[3-(trifluoromethyl)pyridin-2-yl]piperazin-1-yl}pyrimidin-2-yl)-N-2-,N-2-diethyl-N-1-methylethane-1,2-diamine] | ≤ 1000
Cc1cccnc1N1CCN(c2cc(-c3ccc(Cl)cc3)nc(N3CCOCC3)n2)[C@H](C)C1 [Example 483, 4-{4-(4-chlorophenyl)-6-[(2R)-2-methyl-4-(3-methylpyridin-2-yl)piperazin-1-yl]pyrimidin-2-yl}morpholine] | ≤ 1000
Fc1ccc(-c2nc(N3CCOCC3)nc(N3CCN(c4ncccc4C(F)(F)F)CC3)n2)cc1F [Example 428, 2-(3,4-difluorophenyl)-4-morpholin-4-yl-6-{4-[3-(trifluoromethyl)pyridin-2-yl]piperazin-1-yl}-1,3,5-triazine] | ≤ 1000
C[C@@H]1CN(c2ncccc2Cl)CCN1c1cc(-c2cccc(F)c2)nc(N2CCOCC2)n1 [Example 488, 4-[4-[(2R)-4-(3-chloropyridin-2-yl)-2-methylpiperazin-1-yl]-6-(3-fluorophenyl)pyrimidin-2-yl]morpholine] | ≤ 1000

Same assay, conditions: Table II; determined as described in Example 6 (antagonist activity); "*" = 1 micromolar or less

SMILES | IC50 [nM]
C[C@@H]1CN(c2ncccc2F)CCN1c1cc(-c2ccc(F)c(F)c2)nc(Cl)n1 [Example 894, 2-chloro-4-(3,4-difluorophenyl)-6-[(2R)-4-(3-fluoropyridin-2-yl)-2-methylpiperazin-1-yl]pyrimidine] | ≤ 1000
C[C@@H]1CN(c2ncccc2C(F)(F)F)CCN1c1cc(-c2ccc(F)cc2)nc(N2CCCC2)n1 [Example 782, 4-(4-fluorophenyl)-6-{(2R)-2-methyl-4-[3-(trifluoromethyl)pyridin-2-yl]piperazin-1-yl}-2-pyrrolidin-1-ylpyrirnidine] | ≤ 1000
C[C@@H]1CN(c2nccnc2Cl)CCN1c1cc(-c2ccc(F)cc2)nc(Cl)n1 [Example 920, 2-chloro-4-[(2R)-4-(3-chloropyrazin-2-yl)-2-methylpiperazin-1-yl]-6-(4-fluorophenyl)pyrimidine] | ≤ 1000
Cc1cc(-c2cc(N3CCN(c4ncccc4Cl)C[C@H]3C)nc(N(C)C(C)CO)n2)ccc1F (stereo partly shown) [Example 905, 2-[[4-[4-(3-chloropyridin-2-yl)-2-methylpiperazin-1-yl]-6-(4-fluoro-3-methylphenyl)pyrimidin-2-yl](methyl)amino]propan-1-ol] | ≤ 1000
C[C@@H]1CN(c2nccnc2Cl)CCN1c1cc(-c2ccc(F)c(Cl)c2)nc(N2CCCC2)n1 [Example 909, 4-(3-chloro-4-fluorophenyl)-6-[(2R)-4-(3-chloropyrazin-2-yl)-2-methylpiperazin-1-yl]-2-pyrrolidin-1-ylpyrimidine] | ≤ 1000
C[C@@H]1CN(c2ncccc2Cl)CCN1c1cc(-c2ccc(C#N)cc2)nc(N2CCOCC2)n1 [Example 861, 4-{6-[(2R)-4-(3-chloropyridin-2-yl)-2-methylpiperazin-1-yl]-2-morpholin-4-ylpyrimidin-4-yl}benzonitrile] | ≤ 1000
C[C@@H]1CN(c2ccncc2Cl)CCN1c1cc(-c2ccc(F)c(F)c2)nc(Cl)n1 [Example 826, 2-chloro-4-[(2R)-4-(3-chloropyridin-4-yl)-2-methylpiperazin-1-yl]-6-(3,4-difluorophenyl)pyrimidine] | ≤ 1000
CC1CCCN1c1nc(-c2ccc(F)c(F)c2)cc(N2CCN(c3ccncc3Cl)C[C@H]2C)n1 (stereo partly shown) [Example 828, 4-[4-(3-chloropyridin-4-yl)-2-methylpiperazin-1-yl]-6-(3,4-difluorophenyl)-2-(2-methylpyrrolidin-1-yl)pyrimidine] | ≤ 1000
C[C@@H]1CN(c2ncccc2Cl)CCN1c1cc(-c2ccc(F)cc2)nc(N2CCOCC2)n1 [Example 845, 4-[4-[(2R)-4-(3-chloropyridin-2-yl)-2-methylpiperazin-1-yl]-6-(4-fluorophenyl)pyrimidin-2-yl]morpholine] | ≤ 1000
CSc1nc(-c2ccc(F)cc2)cc(N2CCN(c3ncccc3Cl)C[C@H]2C)n1 (stereo in doubt) [Example 839, 4-[4-(3-chloropyridin-2-yl)-2-methylpiperazin-1-yl]-6-(4-fluorophenyl)-2-(methylthio)pyrimidine] | ≤ 1000
Cc1ccc(-c2cc(N3CCN(c4ncccc4Cl)C[C@H]3C)nc(N3CCCCC3)n2)cc1F [Example 804, 4-[(2R)-4-(3-chloropyridin-2-yl)-2-methylpiperazin-1-yl]-6-(3-fluoro-4-methylphenyl)-2-piperidin-1-ylpyrimidine] | ≤ 1000

Same assay, conditions: Table II; determined as described in Example 6; class symbol

SMILES | IC50 [nM]
Cc1cc(F)ccc1-c1nc(N2CCOCC2)nc(N2CCN(c3ccccn3)CC2)n1 [Example 273, 2-(4-fluoro-2-methylphenyl)-4-morpholin-4-yl-6-(4-pyridin-2-ylpiperazin-1-yl)-1,3,5-triazine] | ≤ 1000

Same assay, conditions: determined as described in Example 6 (calcium mobilization, antagonist activity); Table II

SMILES | IC50 [nM]
CCN(CC)c1nc(-c2cccc(C)c2)cc(N2CCN(c3ncccc3C(F)(F)F)CC2)n1 [Example 604, N,N-diethyl-4-(3-methylphenyl)-6-{4-[3-(trifluoromethyl)pyridin-2-yl]piperazin-1-yl}pyrimidin-2-amine] | ≤ 1000
Cc1cc(-c2cc(N3CCN(c4ncccc4C(F)(F)F)C[C@H]3C)nc(N3CCCC3C)n2)ccc1F (stereo partly drawn) [Example 754, 4-(4-fluoro-3-methyiphenyl)-2-(2-methylpyrrolidin-1-yl)-6-{(2R)-2-methyt-4-[3-(trifluoromethyl)pyridin-2-yl]piperazin-1-yl}pyrimidine] | ≤ 1000
Cc1cc(-c2cc(N3CCN(c4ncccc4C(F)(F)F)CC3)nc(N3CCNCC3)n2)ccc1F [Example 645, 4-(4-fluoro-3-methylphenyl)-2-piperazin-1-yl-6-{4-[3-(trifluoromethyl)pyridin-2-yl]piperazin-1-yl}pyrimidine] | ≤ 1000
Fc1ccc(-c2cc(N3CCN(c4ncccc4C(F)(F)F)CC3)nc(N3CCC(CCN4CCCC4)CC3)n2)cc1Cl [Example 665, 4-(3-chloro-4-fluorophenyl)-2-[4-(2-pyrrolidin-1-ylethyl)piperidin-1-yl]-6-{4-[3-(trifluoromethyl)pyridin-2-yl]piperazin-1-yl}pyrimidine] | ≤ 1000
Fc1ccc(-c2cc(N3CCN(c4ncccc4C(F)(F)F)CC3)nc(N3CCN(CC4CC4)CC3)n2)cc1Cl [Example 624, 4-(3-chloro-4-fluorophenyl)-2-[4-(cyclopropylmethyl)piperazin-1-yl]-6-{4-[3-(trifluoromethyl)pyridin-2-yl]piperazin-1-yl}pyrimidine] | ≤ 1000
Cc1cc(-c2cc(N3CCN(c4ncccc4C(F)(F)F)CC3)nc(C(C)N(C)C)n2)ccc1F (stereo not shown) [Example 681, 1-(4-(4-fluoro-3-methylphenyl)-6-{4-[3-(trifluoromethyl)pyridin-2-yl]piperazin-1-yl}pyrimidin-2-yl)-N,N-dimethylethanamine] | ≤ 1000
Cc1cc(-c2cc(N3CCN(c4ncccc4C(F)(F)F)C[C@H]3C)nc(N(C)C(C)C)n2)ccc1F [Example 762, 4-(4-fluoro-3-methylphenyl)-N-isopropyl-N-methyl-6-{(2R)-2-methyl-4-[3-(trifluoromethyl)pyridin-2-yl]piperazin-1-yl}pyrimidin-2-amine] | ≤ 1000
C[C@@H]1CN(c2ncccc2Cl)CCN1c1cc(-c2ccc(F)c(Cl)c2)nc(N2CCCCC2)n1 [Example 734, 4-(3-chloro-4-fluorophenyl)-6-[(2R)-4-(3-chloropyridin-2-yl)-2-methylpiperazin-1-yl]-2-piperidin-1-ylpyrimidine] | ≤ 1000
Fc1ccc(-c2cc(N3CCN(c4ncccc4C(F)(F)F)CC3)nc(OCc3ccccc3C(F)(F)F)n2)cc1F [Example 582, 4-(3,4-difluorophenyl)-2-{[2-(trifluoromethyl)benzyl]oxy}-6-{4-[3-(trifluoromethyl)pyridin-2-yl]piperazin-1-yl}pyrimidine] | ≤ 1000
CS(=O)(=O)N1CCN(c2nc(-c3ccc(F)c(Cl)c3)cc(N3CCN(c4ncccc4C(F)(F)F)CC3)n2)CC1 [Example 572, 4-(3-chloro-4-fluorophenyl)-2-[4-(methylsulfonyl)piperazin-1-yl]-6-{4-[3-(trifluoromethyl)pyridin-2-yl]piperazin-1-yl)pyrimidine] | ≤ 1000
Fc1ccc(-c2cc(N3CCN(c4ncccc4C(F)(F)F)CC3)nc(N3CCC(N4CCCC4)CC3)n2)cc1Cl [Example 666, 4-(3-chloro-4-fluorophenyl)-2-(4-pyrrolidin-1-ylpiperidin-1-yl)-6-{4-[3-(trifluoromethyl)pyridin-2-yl]piperazin-1-yl}pyrimidine] | ≤ 1000
Fc1ccc(-c2cc(N3CCN(c4ncccc4C(F)(F)F)CC3)nc(-c3ncco3)n2)cc1Cl [Example 635, 4-(3-chloro-4-fluorophenyl)-2-(1,3-oxazol-2-yl)-6-{4-[3-(trifluoromethyl)pyridin-2-yl]piperazin-1-yl}pyrimidine] | ≤ 1000
